Where a name gives a salt, the structure may show the parent alone. Read-outs that look alike come from different tables or passages of the source.
Assays:
[1] = target: T1, NK1 TACHYKININ RECEPTOR, HUMAN(CHO) (Homo sapiens, UniProt P25103); assay: biochemical
Protocol: (§1) As a sample, NK1 TACHYKININ RECEPTOR, HUMAN(CHO) diluted with incubation buffer (20 mM HEPES/NaOH buffer containing 1 mM MgCl2, 0.1% BSA: pH 7.4) was used (18.75 µg protein/ml). […] And 20 µl of CP-99,994 (final concentration of 1.5 µM) and 20 µl of distilled water were added to determine the amount of nonspecific binding and the amount of total binding, respectively. […] After one hour of incubation, the incubated mixture was filtered with suction and washed with a wash buffer (50 mM Tris/HCl buffer: pH 7.4) four times. The membrane fitted to each well of the MultiScreen was completely dried and punched inside each vial, and 5 ml of cocktail was added to give a sample to be measured.

male ferrets = assay: Antiemetic action against cisplatin-induced vomiting; assay type: in vivo; settings: test compound 3 mg/kg intravenously; cisplatin 10 mg/kg intraperitoneal; observed over six hours; inhibition vs control group, number of episodes
Protocol: A test was conducted using male ferrets (around 1.2 kg body weight) as follows. Vomiting was induced by intraperitoneal administration of 10 mg/kg of cisplatin to the ferrets in a volume of 3 ml/kg. […] Each test compound was administered intravenously through radial skin at a dose of 3 mg/kg, and immediately after the administration, cisplatin was administered intraperitoneally. Then vomiting symptoms due to cisplatin was observed over six hours. […] The results are shown in Table 2 in terms of rates of inhibition to a control group using the number of times symptoms of vomiting occurred as an index.

[2] = target: T1, NK1 TACHYKININ RECEPTOR, HUMAN(CHO)
Protocol: as §1

T1 sequence (P25103 whole entry): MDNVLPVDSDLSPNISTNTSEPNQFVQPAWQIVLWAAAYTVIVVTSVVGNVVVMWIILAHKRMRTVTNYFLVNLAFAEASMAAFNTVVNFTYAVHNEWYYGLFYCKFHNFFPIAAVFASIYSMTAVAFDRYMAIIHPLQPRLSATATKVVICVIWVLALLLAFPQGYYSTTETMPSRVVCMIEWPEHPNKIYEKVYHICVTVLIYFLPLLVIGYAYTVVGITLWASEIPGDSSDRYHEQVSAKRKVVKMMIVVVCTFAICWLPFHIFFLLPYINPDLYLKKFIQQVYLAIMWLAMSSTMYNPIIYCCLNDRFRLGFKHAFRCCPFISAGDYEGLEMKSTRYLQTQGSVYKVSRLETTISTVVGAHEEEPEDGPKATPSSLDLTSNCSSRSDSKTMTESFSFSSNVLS

Compound	Ki [1] [nM]	Rate of Inhibition (%) Retching (male ferrets) [%]	Rate of Inhibition (%) Vomiting (male ferrets) [%]	Ki [2] [nM]
c1ccc([C@@H]2NCCC[C@@H]2NCc2cc(-c3cccs3)cc3c2OCC3)cc1 [Example 6, (2S,3S)-3-[(5-(thiophene-2-yl)-2,3-dihydrobenzofuran-7-yl)methyl]amino-2-phenylpiperidine hydrochloride]	0.35	–	–	–
Cl.c1ccc([C@@H]2NCCC[C@@H]2NCc2c3c(cc4c2OCC4)OCC3)cc1 [Example 16, (2S,3S)-3-[(2,3,6,7-tetrahydrobenzo[1,2-b:4,5-b']difuran-4-yl)methyl]amino-2-phenylpiperidine hydrochloride]	1.53	58.7	62.6	–
Cl.c1ccc([C@@H]2NCCC[C@@H]2NCc2cc(-n3cnnn3)cc3c2OCC3)cc1 [Example 3, (2S,3S)-3-[(5-(tetrazole-1-yl)-2,3-dihydrobenzofuran-7-yl)methyl]amino-2-phenylpiperidine hydrochloride]	0.18	59.1	61.0	–
(2S,3S)-3-[(5-phenyl-2,3-dihydrobenzofuran-7-yl)methyl]amino-2-phenylpiperidine hydrochloride [Example 9]	–	68.4	59.3	0.41
Cl.FC(F)(F)c1nc(-c2cc3c(c(CN[C@H]4CCCN[C@H]4c4ccccc4)c2)OCC3)no1 [Example 15, (2S, 3S)-3-[(5-(5-trifluoromethyl-1,2,4-oxadiazole-3-yl)-2,3-dihydrobenzofuran-7-yl)methyl]amino-2-phenylpiperidine hydrochloride]	–	63.2	66.8	–

More lines, in order of falling Ki [1], values ahead:

Ki [1] [nM]	Compound	Rate of Inhibition (%) Retching (male ferrets) [%]	Rate of Inhibition (%) Vomiting (male ferrets) [%]	Ki [2] [nM]
1.01	Cl.FC(F)(F)c1ccc(-c2cc3c(c(CN[C@H]4CCCN[C@H]4c4ccccc4)c2)OCC3)cc1 [Example 12, (2S,3S)-3-[(5-(4-trifluoromethylphenyl)-2,3-dihydrobenzofuran-7-yl)methyl]amino-2-phenylpiperidine hydrochloride]	88.4	91.1	–
0.35	c1ccc([C@@H]2NCCC[C@@H]2NCc2cc(-c3ccsc3)cc3c2OCC3)cc1 [Example 7, (2S,3S)-3-[(5-(thiophene-3-yl)-2,3-dihydrobenzofuran-7-yl)methyl]amino-2-phenylpiperidine hydrochloride]	–	–	–
